The source made the active and inactive calls. The rule behind the calls is not given here.
Columns and labels:
Alpha glucosidase = Alpha glucosidase (Homo sapiens, UniProt O43451+P10253+P14410+Q2M2H8); assay: Inhibition of alpha-glucosidase (unknown origin); assay type: protein assay
[1] = Antioxidant activity assessed as DPPH radical scavenging activity incubated for 1 hr by spectrophotometric analysis; assay type: functional

Compound	IC50 (Alpha glucosidase) [µM]	IC50 [1] [µM]	Activity [1]
CC1=C(C(=O)[C@@H](C)c2ccccc2)C(c2ccccc2)NC(=S)N1 (some centres not stated)	61.1	67.8	
COC(=O)C1=C(C)NC(SC)N(C)C1c1ccccc1 (configuration not stated)	84.2	69.5	
CCOC(=O)C1=C(C)NC(SC)N(C)C1c1cccc(O)c1 (configuration not stated)	21.5	29.5	
CCOC(=O)C1=C(C)NC(NN)N(C)C1c1ccc([N+](=O)[O-])cc1.Cl.Cl (configuration not stated)	72.4	66	
COc1ccc(O)c(C(C)(C)C)c1		44.2	
CCOC(=O)C1=C(C)NC(SC)N(C)C1c1ccccc1 (configuration not stated)	24.2	21.4	
CCOC(=O)C1=C(C)n2nnnc2N(C)C1c1cccc(O)c1.Cl.Cl (configuration not stated)	45.6	49.2	
CC1=C(C(=O)O)C(c2ccccc2)NC(=S)N1 (configuration not stated)	89.5	59.8	
CC1=C(C(=O)[C@H](C)c2ccccc2)C(c2ccccc2Cl)NC(=S)N1 (some centres not stated)	23.3	31.2	
CCOC(=O)C1=C(C)n2nnnc2N(C)C1c1ccccc1.Cl.Cl (configuration not stated)	39.4	33.2	
CCOC(=O)C1=C(C)NC(SC)N(C)C1c1cccc(OC)c1OC (configuration not stated)	35.9	38.8	
CCOC(=O)C1=C(C)n2nnnc2N(C)C1c1ccc(C)cc1.Cl.Cl (configuration not stated)	61.1	68.2	
CCOC(=O)C1=C(C)NC(NN)N(C)C1c1ccc(C)cc1.Cl.Cl (configuration not stated)	71.1	85.1	
CCOC(=O)C1=C(C)NC(NN)N(C)C1c1cccc(O)c1.Cl.Cl (configuration not stated)	62.7	79.3	
CCOC(=O)C1=C(C)NC(SC)N(C)C1c1ccc([N+](=O)[O-])cc1 (configuration not stated)	33.3	61.2	
CC1=C(C(=O)O)C(c2ccccc2Cl)NC(=S)N1 (configuration not stated)	12.5	45.3	
CC1=C(C(=O)[C@H](C)c2ccccc2)C(c2ccc(C)cc2)NC(=S)N1 (some centres not stated)	41.2		inactive
COC(=O)C1=C(C)n2nnnc2N(C)C1c1ccccc1.Cl.Cl (configuration not stated)	65.1	55.1	
CC1=C(C(=O)[C@@H](C)c2ccccc2)C(c2ccccc2Cl)NC(=S)N1 (some centres not stated)	18.9	29.8	
CCOC(=O)C1=C(C)NC(SC)N(C)C1c1ccc(C)cc1 (configuration not stated)	44.4	87.3	
CC1=C(C(=O)[C@@H](C)c2ccccc2)C(c2ccc(C)cc2)NC(=S)N1 (some centres not stated)	47.3		inactive
CCOC(=O)C1=C(C)NC(NN)N(C)C1c1ccccc1.Cl.Cl (configuration not stated)	31.1	92.1	
CC1=C(C(=O)[C@H](C)c2ccccc2)C(c2ccccc2)NC(=S)N1 (some centres not stated)	76.2	69	
CC1=C(C(=O)O)C(c2ccc(C)cc2)NC(=S)N1 (configuration not stated)	39.2	90.8	

From ChEMBL document CHEMBL6087403 (Bioorg Med Chem Lett, 2025)
